The text below walks through data of patent publication US20150150878A1, “Methods For Inhibiting Viruses By Targeting Cathepsin-L Cleavage Sites In The Viruses' Glycoproteins” (priority 2012, published 2015).

Common to all, as to assay type: biochemical
Common to all, as to set-up: human cathepsin L purified from human liver (Sigma Aldrich); purchased Sigma Aldrich; host or cells: human liver (tissue-purified)

Assay [1] addresses T1, cathepsin L (Homo sapiens, UniProt P07711).
The target in assay [2] is T1, cathepsin L. The source holds these as a separate data set.
Assay [3] concerns the target T1, cathepsin L. This is another data set of the same source.
Assay [4] addresses T1, cathepsin L. This is another data set of the same source.
Assay [5] addresses T1, cathepsin L. This is another data set of the same source.
Also: test concentration or dose not given here.

T1 sequence (P07711 114-333): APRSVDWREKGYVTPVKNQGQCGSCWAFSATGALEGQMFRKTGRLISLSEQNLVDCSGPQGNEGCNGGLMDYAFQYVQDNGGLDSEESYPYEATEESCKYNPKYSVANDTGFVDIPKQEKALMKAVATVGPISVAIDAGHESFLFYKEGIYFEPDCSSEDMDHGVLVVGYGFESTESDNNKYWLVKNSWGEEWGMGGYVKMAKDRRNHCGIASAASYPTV

Consider `Cc1cc(C(=O)Nc2cccnc2)sc1-c1ccccc1` [Compound 7948346], for which the “Inhibition of cleavage of SARS peptide by Cathepsin-L” value in assay [1] worked out at 72.4%. Further, the “Inhibition of cleavage of Ebola peptide by Cathepsin-L” value in assay [2] is listed as 25.2%. Further, the “Inhibition of cleavage of Nipah peptide by Cathepsin-L” value in assay [3] was 49.3%. In assay [4], the “Inhibition of cleavage of Hendra peptide by Cathepsin-L” value was 17.7%. In addition, the “Inhibition of cleavage of NPY peptide by Cathepsin-L” value in assay [5] is 10.2%.

As to `O=C(Nc1ccc2c(c1)OCO2)c1cc(-c2cccnc2)nc2ccc(Cl)cc12` [Compound 7924029], in assay [1], the “Inhibition of cleavage of SARS peptide by Cathepsin-L” value stood at 60% and the “percentage inhibition against SARS peptide” value worked out at 71.2%. Besides, in assay [2], the “Inhibition of cleavage of Ebola peptide by Cathepsin-L” value was found to be 22% and the “percentage inhibition against Ebola peptide” value was 55%. For the same compound, in assay [3], the “Inhibition of cleavage of Nipah peptide by Cathepsin-L” value is on record as 50.4% and the “percentage inhibition against Nipah peptide” value worked out at 77.9%. Moreover, in assay [4], the “Inhibition of cleavage of Hendra peptide by Cathepsin-L” value is recorded as 26.3% and the “percentage inhibition against Hendra peptide” value came out at 45.6%. Besides, in assay [5], the “Inhibition of cleavage of NPY peptide by Cathepsin-L” value was determined as 11% and the “percentage inhibition against human Pro-NPY peptide” value was found to be 18.6%.

As for `Cc1c(C#N)c2ccccc2n1CC(=O)NCc1ccc2c(c1)OCO2` [Compound 6874634], in assay [1], the “Inhibition of cleavage of SARS peptide by Cathepsin-L” value is reported as 65.6% and the “percentage inhibition against SARS peptide” value worked out at 67.7%. Also, in assay [2], the “Inhibition of cleavage of Ebola peptide by Cathepsin-L” value is on record as 4.6% and the “percentage inhibition against Ebola peptide” value turned out to be 48%. Moreover, in assay [3], the “Inhibition of cleavage of Nipah peptide by Cathepsin-L” value is 46% and the “percentage inhibition against Nipah peptide” value turned out to be 54.1%. Moreover, in assay [4], the “Inhibition of cleavage of Hendra peptide by Cathepsin-L” value was 21.2% and the “percentage inhibition against Hendra peptide” value turned out to be 22.7%. In assay [5], the “Inhibition of cleavage of NPY peptide by Cathepsin-L” value came out at 12.8% and the “percentage inhibition against human Pro-NPY peptide” value is 13.4%.

Consider `CNS(=O)(=O)c1ccc(NC(=O)Nc2ccc(F)c(Cl)c2)cc1` [Compound 7790059], for which the “Inhibition of cleavage of SARS peptide by Cathepsin-L” value in assay [1] was 49.3%. In assay [2], the “Inhibition of cleavage of Ebola peptide by Cathepsin-L” value stood at 1.8%. In assay [3], the “Inhibition of cleavage of Nipah peptide by Cathepsin-L” value is given as 44.1%. In assay [4], the “Inhibition of cleavage of Hendra peptide by Cathepsin-L” value worked out at 12.4%. The “Inhibition of cleavage of NPY peptide by Cathepsin-L” value in assay [5] came to 6.4%.

Regarding `COc1ccc(OC)c(NC(=O)Nc2ccc(C(F)(F)F)cc2)c1` [Compound 7808526], the “Inhibition of cleavage of SARS peptide by Cathepsin-L” value in assay [1] is recorded as 69.2%. For the same compound, in assay [2], the “Inhibition of cleavage of Ebola peptide by Cathepsin-L” value worked out at 9.6%. In addition, in assay [3], the “Inhibition of cleavage of Nipah peptide by Cathepsin-L” value is recorded as 40.8%. The “Inhibition of cleavage of Hendra peptide by Cathepsin-L” value in assay [4] is reported as −4.08%. Also, the “Inhibition of cleavage of NPY peptide by Cathepsin-L” value in assay [5] amounted to 1.2%.

For `CN(C)c1ccc(C(O)(c2ccc(N(C)C)cc2)c2ccc(N(C)C)cc2)cc1` [Compound 5152606], the “Inhibition of cleavage of SARS peptide by Cathepsin-L” value in assay [1] is given as 82.15%. Also, the “Inhibition of cleavage of Ebola peptide by Cathepsin-L” value in assay [2] came to 31.8%. For the same compound, the “Inhibition of cleavage of Nipah peptide by Cathepsin-L” value in assay [3] was found to be 121.65%. In addition, the “Inhibition of cleavage of Hendra peptide by Cathepsin-L” value in assay [4] was 108.40%. For the same compound, the “Inhibition of cleavage of NPY peptide by Cathepsin-L” value in assay [5] came out at 70.2%.

For the compound `Cl.c1ccc(CNC2CCCc3c2[nH]c2ccc(-c4ccccc4)cc32)cc1` (stereo not drawn) [Compound 5219666], in assay [1], the “Inhibition of cleavage of SARS peptide by Cathepsin-L” value is on record as 94.6% and the “percentage inhibition against SARS peptide” value turned out to be 96.8%. Besides, in assay [2], the “Inhibition of cleavage of Ebola peptide by Cathepsin-L” value is 43% and the “percentage inhibition against Ebola peptide” value came to 75.7%. Also, in assay [3], the “Inhibition of cleavage of Nipah peptide by Cathepsin-L” value is reported as 90.6% and the “percentage inhibition against Nipah peptide” value turned out to be 87.5%. Besides, in assay [4], the “Inhibition of cleavage of Hendra peptide by Cathepsin-L” value stood at 54.6% and the “percentage inhibition against Hendra peptide” value is given as 65.2%. In assay [5], the “Inhibition of cleavage of NPY peptide by Cathepsin-L” value stood at 30% and the “percentage inhibition against human Pro-NPY peptide” value came to 44.4%.

`O=C(Nc1ccc(S(=O)(=O)N2CCOCC2)cc1)Nc1ccc(F)c(Cl)c1` [Compound 7798500]: in assay [1], the “Inhibition of cleavage of SARS peptide by Cathepsin-L” value came to 69.6% and the “percentage inhibition against SARS peptide” value was found to be 62.2%. For the same compound, in assay [2], the “Inhibition of cleavage of Ebola peptide by Cathepsin-L” value is recorded as −6.3% and the “percentage inhibition against Ebola peptide” value came to 64.8%. Further, in assay [3], the “Inhibition of cleavage of Nipah peptide by Cathepsin-L” value was found to be 41.5% and the “percentage inhibition against Nipah peptide” value stood at 49.2%. In assay [4], the “Inhibition of cleavage of Hendra peptide by Cathepsin-L” value turned out to be 26.3% and the “percentage inhibition against Hendra peptide” value amounted to 30.4%. In assay [5], the “Inhibition of cleavage of NPY peptide by Cathepsin-L” value came out at 11.2% and the “percentage inhibition against human Pro-NPY peptide” value worked out at 24.6%.

Turning to `Cc1ccc(-c2nc3ccccc3[nH]2)cc1NC(=O)c1ccc2c(c1)OCO2` [Compound 7793889], the “Inhibition of cleavage of SARS peptide by Cathepsin-L” value in assay [1] came out at 76.5%. Further, in assay [2], the “Inhibition of cleavage of Ebola peptide by Cathepsin-L” value was −3.4%. Besides, the “Inhibition of cleavage of Nipah peptide by Cathepsin-L” value in assay [3] was 51.1%. For the same compound, the “Inhibition of cleavage of Hendra peptide by Cathepsin-L” value in assay [4] was −7.77%. Besides, the “Inhibition of cleavage of NPY peptide by Cathepsin-L” value in assay [5] is recorded as 6.1%.

In the case of `Nc1ccc2[nH]c3ccccc3c2c1` [Compound 5172420], the “Inhibition of cleavage of SARS peptide by Cathepsin-L” value in assay [1] was found to be 42.29%. The “Inhibition of cleavage of Ebola peptide by Cathepsin-L” value in assay [2] stood at 6.1%. Further, in assay [3], the “Inhibition of cleavage of Nipah peptide by Cathepsin-L” value turned out to be 55.68%. In assay [4], the “Inhibition of cleavage of Hendra peptide by Cathepsin-L” value amounted to 8.20%. The “Inhibition of cleavage of NPY peptide by Cathepsin-L” value in assay [5] came to 4.1%.

As to `O=C(Nc1ccc(F)c(Cl)c1)Nc1nnc(C(F)(F)F)s1` [Compound 7940158], in assay [1], the “Inhibition of cleavage of SARS peptide by Cathepsin-L” value is 55.8% and the “percentage inhibition against SARS peptide” value came out at 64.6%. In assay [2], the “Inhibition of cleavage of Ebola peptide by Cathepsin-L” value is listed as −12.3% and the “percentage inhibition against Ebola peptide” value turned out to be 49.1%. Further, in assay [3], the “Inhibition of cleavage of Nipah peptide by Cathepsin-L” value is listed as 34% and the “percentage inhibition against Nipah peptide” value was 54.7%. Besides, in assay [4], the “Inhibition of cleavage of Hendra peptide by Cathepsin-L” value was 26.2% and the “percentage inhibition against Hendra peptide” value was determined as 19%. Further, in assay [5], the “Inhibition of cleavage of NPY peptide by Cathepsin-L” value amounted to 4% and the “percentage inhibition against human Pro-NPY peptide” value turned out to be 14.9%.

For the compound `Cc1cnn(CCCNC(=O)c2cc(-c3cccnc3)nc3ccc(Cl)cc23)c1` [Compound 7923236], in assay [1], the “Inhibition of cleavage of SARS peptide by Cathepsin-L” value worked out at 60.2% and the “percentage inhibition against SARS peptide” value is 66.2%. Also, in assay [2], the “Inhibition of cleavage of Ebola peptide by Cathepsin-L” value is 14% and the “percentage inhibition against Ebola peptide” value is recorded as 34.8%. In addition, in assay [3], the “Inhibition of cleavage of Nipah peptide by Cathepsin-L” value amounted to 55.1% and the “percentage inhibition against Nipah peptide” value turned out to be 80.3%. Further, in assay [4], the “Inhibition of cleavage of Hendra peptide by Cathepsin-L” value is reported as 32.6% and the “percentage inhibition against Hendra peptide” value turned out to be 59%. Moreover, in assay [5], the “Inhibition of cleavage of NPY peptide by Cathepsin-L” value came out at 5.2% and the “percentage inhibition against human Pro-NPY peptide” value was determined as 10.1%.

Take `O=C(Nc1nc(-c2ccccc2)cs1)c1cc(-n2cnnc2)ccc1Cl` [Compound 7931205]: in assay [1], the “Inhibition of cleavage of SARS peptide by Cathepsin-L” value is listed as 36.8% and the “percentage inhibition against SARS peptide” value is on record as 38.1%. Also, in assay [2], the “Inhibition of cleavage of Ebola peptide by Cathepsin-L” value is −0.7% and the “percentage inhibition against Ebola peptide” value is listed as 20%. Besides, in assay [3], the “Inhibition of cleavage of Nipah peptide by Cathepsin-L” value was 66.6% and the “percentage inhibition against Nipah peptide” value is listed as 74.4%. For the same compound, in assay [4], the “Inhibition of cleavage of Hendra peptide by Cathepsin-L” value is reported as 34.8% and the “percentage inhibition against Hendra peptide” value is reported as 38.6%. Moreover, in assay [5], the “Inhibition of cleavage of NPY peptide by Cathepsin-L” value is listed as 19.5% and the “percentage inhibition against human Pro-NPY peptide” value was 24.9%.

Regarding `Cc1c(Sc2nc3ccccc3[nH]2)c(=O)[nH]c2cc3c(cc12)OCO3` [Compound 7665576], in assay [1], the “Inhibition of cleavage of SARS peptide by Cathepsin-L” value stood at 60.7%. Besides, the “Inhibition of cleavage of Ebola peptide by Cathepsin-L” value in assay [2] was −3.8%. In addition, in assay [3], the “Inhibition of cleavage of Nipah peptide by Cathepsin-L” value is reported as 63.7%. Also, the “Inhibition of cleavage of Hendra peptide by Cathepsin-L” value in assay [4] was 37.9%. In addition, the “Inhibition of cleavage of NPY peptide by Cathepsin-L” value in assay [5] is listed as 2.0%.

On to `N#CSc1ccc(NC(=O)CSc2nc3ccccc3[nH]2)cc1` [Compound 6572698], for which, in assay [1], the “Inhibition of cleavage of SARS peptide by Cathepsin-L” value is on record as 66.1% and the “percentage inhibition against SARS peptide” value turned out to be 44.8%. In assay [2], the “Inhibition of cleavage of Ebola peptide by Cathepsin-L” value is listed as 15% and the “percentage inhibition against Ebola peptide” value is reported as 34%. In addition, in assay [3], the “Inhibition of cleavage of Nipah peptide by Cathepsin-L” value is recorded as 40.7% and the “percentage inhibition against Nipah peptide” value is listed as 41.1%. Also, in assay [4], the “Inhibition of cleavage of Hendra peptide by Cathepsin-L” value was 21.6% and the “percentage inhibition against Hendra peptide” value is recorded as 24.8%. Further, in assay [5], the “Inhibition of cleavage of NPY peptide by Cathepsin-L” value stood at 1% and the “percentage inhibition against human Pro-NPY peptide” value is 14.7%.

With `O=C(Nc1cccnc1)c1cc2cc(Br)ccc2oc1=O` [Compound 7947992], the “Inhibition of cleavage of SARS peptide by Cathepsin-L” value in assay [1] was found to be 37.7%. In assay [2], the “Inhibition of cleavage of Ebola peptide by Cathepsin-L” value is on record as 20%. For the same compound, the “Inhibition of cleavage of Nipah peptide by Cathepsin-L” value in assay [3] is given as 61.4%. For the same compound, the “Inhibition of cleavage of Hendra peptide by Cathepsin-L” value in assay [4] is reported as 31.1%. In addition, in assay [5], the “Inhibition of cleavage of NPY peptide by Cathepsin-L” value is given as 18.6%.
